Each structure is given as a SMILES string.

Consider 3 compounds from patent publication US20230052017A1, “New compounds for treatment of diseases related to DUX4 expression” (Facio Intellectual Property B.V., priority 2019, published 2023).

The assay relates to DUX4. Nature of the assay: DUX4 repression assay in primary FSHD cells (protocol of Example 2 of WO2019/115711). The assay is classed as cell-based, human. To be noted: incubated 72 hours, reference compounds. The text has this:
Following the central role of DUX4 in the consensus disease hypothesis for FSHD, a therapeutic approach with a disease-modifying potential is expected to rely on the inhibition of DUX4. The inventors have identified the compounds according to the invention as being able to achieve DUX4 repression in muscle cells. This invention has been made using primary FSHD patient-derived muscle cells. Because of the primate-specificity of the FSHD locus and questionable relevance of recombinant, immortalized, or tumorigenic cell or animal models to study endogenous DUX4 regulatory mechanisms, primary patient-derived muscle cells are the most relevant disease model. Assays based on immortalized cells bear the risk of altered epigenomes, thereby limiting their relevance in studying the endogenous regulation of DUX4 expression. Particularly the subtelomeric location of D4Z4 and the importance of the D4Z4 epigenome in the stability of DUX4 repression (Stadler et al., 2013, DOI: 10.1038/nsmb.2571) underscore the necessity of using primary muscle cells to discover physiologically relevant drug targets that regulate the expression of DUX4.
The DUX4 repression of compounds of general formula (I) was assayed following a known protocol (the protocol of Example 2 of WO2019/115711). Several compounds were incubated with primary FSHD cells for 72 hours. Results are shown in Table 4, showing DUX4 Count % inhibition.
As to `CN1CCN(C(=O)Cc2nn(C(C)(C)C)c(-c3ccc(F)cc3)c2-c2ccncc2)CC1` [Compound 106, 2-[1-tert-butyl-5-(4-fluorophenyl)-4-(pyridin-4-yl)-1H-pyrazol-3-yl]-1-(4-methylpiperazin-1-yl)ethan-1-one], the “DUX4 count % inhibition” value was 17.3%.
In the case of `CN1CCN(C(=O)Cn2cnc(-c3ccc(F)cc3)c2-c2cccnc2)CC1` [Compound 107, 2-[4-(4-fluorophenyl)-5-(pyridin-3-yl)-1H-imidazol-1-yl]-1-(4-methylpiperazin-1-yl)ethan-1-one] it was 10.7%.
To `O=C(Cn1cnc(-c2ccc(F)cc2)c1-c1cccnc1)N1CCNCC1` [Compound 108, 2-[4-(4-fluorophenyl)-5-(pyridin-3-yl)-1H-imidazol-1-yl]-1-(piperazin-1-yl)ethan-1-one] belongs 6.6%.
